Experimental data taken from paper PMC10671050, “Alkyl Derivatives of Perylene Photosensitizing Antivirals: Towards Understanding the Influence of Lipophilicity” (International Journal of Molecular Sciences, 2023).
Values after ≈ are worked out from the molar mass of the structure shown. “Also recorded” adds a separate entry of the source. Like-named read-outs stand apart in the source and are kept apart here.

Legend:
[1] = assay type: physicochemical; details: methanol, DPBF trap, 450–470 nm, relative to riboflavin
[2] = Solubilization in 15% DMSO in water; details: for solubility: aqueous with cosolvent or surfactant or cyclodextrin, kinetic from dmso stock
Experimental: To perform this measurement, the compound was dissolved in DMSO and then diluted with water to achieve a solution containing 15% DMSO. The solution was centrifuged, and the resulting supernatant was lyophilized (evaporated) to dryness. Subsequently, the dry residue was dissolved in DMSO, and the concentration of the compound dissolved in DMSO was determined spectrophotometrically.
The mixtures were then centrifuged at 20,000 rcf for 5 min; 500 μL of the supernatant were collected and lyophilized; 76 µL of DMSO were added to the dry residue, and the absorbance was measured at the maximum absorption wavelength for compounds in solutions diluted 200 times with methanol. The data obtained were recalculated according to the law of dilutions and Beer’s law to obtain the initial concentrations of the compounds solubilized in 15% DMSO in water.

VSV Indiana strain = assay: microbe, parasite or virus in culture; assay type: cell-based, vesicular stomatitis Indiana virus; details: Vesicular stomatitis virus, HEK-293T, 1 h, read-out: VSV, EC50
HSV-1, strain MacIntyre [3] = assay: HSV-1 titer reduction assay in Vero cells; details: 48 h; for viral replication and spread in HSV-1-infected Vero cell culture: inside cell culture (Figure 6C)
Vero cells = assay: Light-induced cytotoxicity (photocytotoxicity) in Vero cells; assay type: cell-based, African Green Monkey; details: blue light 10 min vs daylight, 0–10 µM, 48 h
Experimental: (§1) Subsequently, cells treated with the compounds were irradiated with LEDs (465–480 nm, 30 mW/cm^2) for 10 min at RT. As a negative control, compound-treated cells were incubated for 10 min in daylight at RT. Then, both the irradiated and non-irradiated cell monolayers were incubated at 37 °C in the dark for 48 h. Subsequently, the cell culture medium was aspirated and the cytotoxicity of the tested perylene derivatives was determined based on cell viability using Cell Counting Kit-8 (Dojindo Molecular Technologies, Munich, Germany) according to the manufacturer’s instructions. Note: all manipulation with samples was performed in daylight (Figure 7K).

[4] = as above; assay type: cell-based, African Green Monkey; details: African green monkey, Vero cells; blue light 465–480 nm, 10 min, then 48 h; read-out: cell viability of Vero cells after irradiation
Experimental: as §1

HSV-1, strain MacIntyre [5] = assay: Photodynamic inactivation of HSV-1 (virus treated with compound, plaque assay); assay type: cell-based, herpes simplex virus-1; details: for HSV-1-inactivating effect after blue light irradiation: 10 µM
[6] = Cytotoxicity assay in Vero cells (Cell Counting Kit-8); assay type: cell-based; details: African green monkey, 48 h incubation, compared to controls (DMSO-treated cells)
Experimental: Vero cells were cultured for 24 h in 96-well plates to form a confluent monolayer and then were treated with the tested compounds at concentrations of 50 µM. After 48 h of cultivation in the dark at 37 °C under 5% CO2, the cell culture medium was aspirated. The potential cytotoxicity of the tested derivatives was determined based on cell viability using Cell Counting Kit-8 (Dojindo Molecular Technologies, Munich, Germany) according to the manufacturer’s instructions.

[7] = 10 µM, viral titer in medium supernatant
[8] = Human alphaherpesvirus 1, 10 min, HSV-1 10^4 PFU/mL, 10 min in daylight, plaque assay, read-out: EC50 (µM) in Daylight
[9] = Human alphaherpesvirus 1, 10 min, HSV-1 10^4 PFU/mL, blue light 465–480 nm, 30 mW/cm^2, 10 min, plaque assay, read-out: EC50 (µM) under Blue Light

| Structure (SMILES) | 1O2 Quantum Yield [1] | solubility [2] | EC50 (VSV Indiana strain) | anti-HSV-1 activity in Vero cells (HSV-1, strain MacIntyre [3]; [7]) | also measured |
| --- | --- | --- | --- | --- | --- |
| CCCCCCCCCCCCc1ccc2c3cccc4c(C#Cc5cn([C@@H]6O[C@H](CO)[C@@H](O)[C@@H]6O)c(=O)[nH]c5=O)ccc(c5cccc1c52)c43 [Compound 9c, 5-[9(10)-Dodecylperylen-3-ylethynyl]-arabino-uridine] | 22.5 ± 3.4% | 0.24 µM (≈ 0.165 µg/mL) | > 175 µM | completely inactive | photocytotoxicity to Vero cells (Vero cells): did not increase the cytotoxicity; viability at 48 h [4]: 115 to 128% |
| CCCCCCCCc1ccc2c3cccc4c(C#Cc5cn([C@@H]6O[C@H](CO)[C@@H](O)[C@@H]6O)c(=O)[nH]c5=O)ccc(c5cccc1c52)c43 [Compound 9b, 5-[9(10)-Octylperylen-3-ylethynyl]-arabino-uridine] | 18.6 ± 2.3% | 0.38 µM (≈ 0.24 µg/mL) | 10 to 200 µM | only moderately active | HSV-1-inactivating effect after blue light irradiation (HSV-1, strain MacIntyre [5]): complete inactivation of HSV-1; times less effectively dissolved than deoxy- and ribo- analogs (10b, 11b) ([2]; 15% DMSO in water): approximately 1.5 times; photocytotoxicity to Vero cells (Vero cells): did not increase the cytotoxicity; viability at 48 h [4]: 115 to 128% |
| Nc1nc2c(ncn2COCCO)c(=O)[nH]1 [acyclovir, reference compound] | – | – | – | – | anti-HSV-1 activity in Vero cells (HSV-1, strain MacIntyre [3]; 50 µM): completely inhibited HSV-1 replication |
| O=c1[nH]c(=O)n([C@H]2C[C@H](O)[C@@H](CO)O2)cc1C#Cc1ccc2c3cccc4cccc(c5cccc1c52)c43 [Compound 11, reference compound] | 38.6 ± 0.8% | – | < 10 µM | – | – |
| CCCCCCCCc1ccc2c3cccc4c(C#Cc5cn([C@H]6C[C@H](O)[C@@H](CO)O6)c(=O)[nH]c5=O)ccc(c5cccc1c52)c43 [Compound 11b, 5-[9(10)-Octylperylen-3-ylethynyl]-deoxy-uridine] | 21.0 ± 2.0% | 0.67 µM (≈ 0.412 µg/mL) | 10 to 200 µM | only moderately active | viability at 48 h, 10 µM [6]: ~120% |
| CCCCc1ccc2c3cccc4c(C#Cc5cn([C@@H]6O[C@H](CO)[C@@H](O)[C@H]6O)c(=O)[nH]c5=O)ccc(c5cccc1c52)c43 [Compound 10a, 5-[9(10)-Butylperylen-3-ylethynyl]-ribo-uridine] | 23.1 ± 2.2% | 0.02 µM (≈ 0.0115 µg/mL) | 10 to 200 µM | completely inhibited viral replication; also recorded: higher antiviral potency compared to acyclovir | Decrease in EC50 (Fold) (HSV-1, strain MacIntyre [5]): 20.3 fold; EC50 (HSV-1, strain MacIntyre [5]; [8]): 2.18 µM; EC50 (HSV-1, strain MacIntyre [5]; [9]): 0.107 µM; viability at 48 h, 10 µM [6]: ~80%; solubility in 15% DMSO in water ([2]; 15% DMSO in water): lower solubility; viral replication and spread in HSV-1-infected Vero cell culture (HSV-1, strain MacIntyre [3]; 10 µM): did not suppress viral replication and spread |
| CCCCCCCCCCCCc1ccc2c3cccc4c(C#Cc5cn([C@@H]6O[C@H](CO)[C@@H](O)[C@H]6O)c(=O)[nH]c5=O)ccc(c5cccc1c52)c43 [Compound 10c, 5-[9(10)-Dodecylperylen-3-ylethynyl]-ribo-uridine] | 28.7 ± 8.6% | 0.24 µM (≈ 0.165 µg/mL) | > 200 µM | completely inactive | – |
| O=c1[nH]c(=O)n([C@@H]2O[C@H](CO)[C@@H](O)[C@@H]2O)cc1C#Cc1ccc2c3cccc4cccc(c5cccc1c52)c43 [Compound 9, reference compound] | 40.1 ± 4.0% | – | < 10 µM | – | – |
| O=c1[nH]c(=O)n([C@@H]2O[C@H](CO)[C@@H](O)[C@H]2O)cc1C#Cc1ccc2c3cccc4cccc(c5cccc1c52)c43 [Compound 10, reference compound] | 33.6 ± 1.2% | – | < 10 µM | – | EC50 (HSV-1, strain MacIntyre [5]; [9]): 0.116 µM |
| O=C(O)c1ccc(-c2ccc3c4cccc5cccc(c6cccc2c63)c54)s1 [Compound 15, 5-(perylene-3-yl)thiophenecarboxylic acid, reference compound] | 73.2 ± 8.9% | – | < 10 µM | – | EC50 (HSV-1, strain MacIntyre [5]; [9]): 0.038 µM |
| Oc1cccc(C#Cc2ccc3c4cccc5cccc(c6cccc2c63)c54)c1 [Compound 13, reference compound] | – | – | 10 to 200 µM | – | viability at 48 h, 10 µM [6]: 109 to 122% |
| CCCCCCCCc1ccc2c3cccc4c(C#Cc5cn([C@@H]6O[C@H](CO)[C@@H](O)[C@H]6O)c(=O)[nH]c5=O)ccc(c5cccc1c52)c43 [Compound 10b, 5-[9(10)-Octylperylen-3-ylethynyl]-ribo-uridine] | 19.2 ± 1.5% | 0.59 µM (≈ 0.372 µg/mL) | > 200 µM | only moderately active | HSV-1-inactivating effect after blue light irradiation (HSV-1, strain MacIntyre [5]): complete inactivation of HSV-1 |
| CCCCCCCCc1ccc2c3cccc4c(-c5ccc(C(=O)O)s5)ccc(c5cccc1c25)c43 [Compound 15b, 5-[9(10)-Octylperylen-3-yl]thiophene-2-carboxylic acid] | 72.9 ± 5.6% | 0.1 µM (≈ 0.0491 µg/mL) | 10 to 200 µM | complete inhibition; also recorded: higher antiviral potency compared to acyclovir | Decrease in EC50 (Fold) (HSV-1, strain MacIntyre [5]): >3.5 fold; fold less active than non-alkylated counterparts (12, 15) (HSV-1, strain MacIntyre [5]): ~3 fold; HSV-1-inactivating effect in daylight (HSV-1, strain MacIntyre [5]; 0–10 µM, daylight): only partial or no viral inactivation; also recorded: no virus-inactivating effect; EC50 (HSV-1, strain MacIntyre [5]; [8]): > 10 µM; EC50 (HSV-1, strain MacIntyre [5]; [9]): 2.89 µM; viral replication and spread in HSV-1-infected Vero cell culture (HSV-1, strain MacIntyre [3]; 10 µM): did not suppress viral replication and spread |
| Oc1ccc(C#Cc2ccc3c4cccc5cccc(c6cccc2c63)c54)cc1Br [Compound 14, reference compound] | – | – | 10 to 200 µM | – | viability at 48 h, 10 µM [6]: 109 to 122% |
| Oc1ccc(C#Cc2ccc3c4cccc5cccc(c6cccc2c63)c54)cc1 [Compound 12, reference compound] | – | – | 10 to 200 µM | – | EC50 (HSV-1, strain MacIntyre [5]; Human alphaherpesvirus 1, 10 min, read-out: EC50 (µM) under Blue Light): 0.472 µM; viability at 48 h, 10 µM [6]: 109 to 122% |
| CCCCCCCCCCCCc1ccc2c3cccc4c(-c5ccc(C(=O)O)s5)ccc(c5cccc1c25)c43 [Compound 15c, 5-[9(10)-Dodecylperylen-3-yl]thiophene-2-carboxylic acid] | 79.8 ± 8.9% | 0.05 µM (≈ 0.0273 µg/mL) | 10 to 200 µM | no anti-HSV-1 activity | HSV-1-inactivating effect after blue light irradiation (HSV-1, strain MacIntyre [5]): no virus-inactivating effect |
| CCCCc1ccc2c3cccc4c(-c5ccc(C(=O)O)s5)ccc(c5cccc1c25)c43 [Compound 15a, 5-[9(10)-Butylperylen-3-yl]thiophene-2-carboxylic acid] | 91.6 ± 0.2% | 0.11 µM (≈ 0.0478 µg/mL) | 0.2 ± 0.2 µM | complete inhibition; also recorded: higher antiviral potency compared to acyclovir | Decrease in EC50 (Fold) (HSV-1, strain MacIntyre [5]): 5.4 fold; fold less active than non-alkylated counterparts (12, 15) (HSV-1, strain MacIntyre [5]): ~3 fold; EC50 (HSV-1, strain MacIntyre [5]; HSV-1 10^4 PFU/mL, 10 min in daylight, plaque assay, read-out: EC50 (µM) in Daylight): 0.608 µM; EC50 (HSV-1, strain MacIntyre [5]; HSV-1 10^4 PFU/mL, blue light 465–480 nm, 30 mW/cm^2, 10 min, plaque assay, read-out: EC50 (µM) under Blue Light): 0.112 µM; EC50 (HSV-1, strain MacIntyre [5]; [8]): 0.61 µM; EC50 (HSV-1, strain MacIntyre [5]; [9]): ~0.1 µM; viral replication and spread in HSV-1-infected Vero cell culture (HSV-1, strain MacIntyre [3]; 10 µM): did not suppress viral replication and spread |
